Legend:
[1] = Stability in high humidity environment (moisture absorption weight gain); format: physicochemical; details: 25° C., RH90%±5%
Description: A moisture absorption gain ratio was calculated.

[2] = Photo- and thermal stability in the solvent, HPLC
[3] = pH 7.5
[4] = tested on: SV40 corneal epithelial cells; test: Hypertonic inflammatory cell model, RT-PCR of inflammation-related cytokine mRNA; format: cell-based, human; details: hypertonic model 500 mOsm, four hours of administration, vs. HS group, Ps<0.01
Description: SV40 cell culture: SV40 cells were cultured in a DMEM/F12 medium containing 10% fetal bovine serum, and added with insulin and a human epidermal growth factor at the same time, so that a final concentration of insulin in the medium was 5 μg/mL and a final concentration of the human epidermal growth factor was 10 ng/mL. The medium was routinely subcultured in a cell culture incubator with a temperature of 37° C., CO2 content of 5% and a humidity of 90%. The cells were grown to a fused state of 70%-90% for an experiment.
Preparation of solution: (1) preparation of hypertonic liquid (500 mOsm): 90 mmol/L NaCl solution was added to a serum-free medium. […]
(§1) Real-time PCR (RT-PCR): mRNA expressions of different groups of IL-6, IL-1β, IL-17A, IL-18, TNF-α, and NLRP3 were detected using RT-PCR. […] RNA was extracted from the cells according to an instruction of an RNA extraction kit, and a total amount of RNAs required to synthesize a cDNA template was calculated based on a measured concentration. cDNA was synthesized by an M-MLV reverse transcription kit, and the cDNA obtained by reverse transcription was stored at −20° C. for subsequent PCR amplification. […]
(§2) A SYBR Green fluorescent dye method was used for RT-PCR detection. A relatively quantified mRNA expression quantity of a target gene was calculated. […]

[5] = tested on: primary human corneal epithelial cells; test: as above; format: cell-based; details: Ps<0.01
Description: Primary human cell culture: the remaining limbus of the donor cornea used in a surgery was treated with an ophthalmic instrument into a tissue block carrying corneal stem cells, the tissue block was pasted at the bottom of a cell culture dish, cultured in an SHEM medium, and placed in a cell culture incubator with a temperature of 37° C., CO2 content of 5% and humidity of 90%; primary human corneal epithelial cells crawling out of the limbal stem cells can be seen after 3-5 days; and the cells were grown to a fused state of 70%-90% for an experiment.
Preparation of solution: (1) preparation of hypertonic liquid (500 mOsm): 90 mmol/L NaCl solution was added to a serum-free medium. (2) Preparation of a tested drug solution: 10 mg of the above prepared product was dissolved in 1 mL of 37° C. DMSO solution, prepared into […] mother liquor, and stored in a −20° C. refrigerator for later use; and the mother liquor was diluted with a serum-free medium to prepare drug solutions having final concentrations of 1 μmol/L and 10 μmol/L for an experiment. […]
as §1, §2
Real-time PCR (RT-PCR): mRNA expressions of different groups of IL-6, IL-1β, IL-17A, IL-18, TNF-α, and NLRP3 were detected using RT-PCR. […]

COc1ccc2cc3[n+](cc2c1OC)CCc1cc2c(cc1-3)OCO2 [Berberine base]
Weight gain percentage of Day 5 (%) [1]: 4.2% | Weight gain percentage of Day 10 (%) [1]: 6.7% | C ([2]; 0:00): 24.45 µg/mL | Purity ([2]; 0:00): 97.35% | C ([2]; 40° C. (in dark place), 8:00): 22.62 µg/mL | Purity ([2]; 40° C. (in dark place), 8:00): 97.17% | C ([2]; 40° C. (in dark place), Day 5): 22.41 µg/mL | Purity ([2]; 40° C. (in dark place), Day 5): 97.02% | C ([2]; 40° C. (in dark place), Day 10): 10.35 µg/mL | Purity ([2]; 40° C. (in dark place), Day 10): 96.86% | C ([2]; 60° C. (in dark place), 8:00): 22.45 µg/mL | Purity ([2]; 60° C. (in dark place), 8:00): 97.17% | C ([2]; 60° C. (in dark place), Day 5): 21.31 µg/mL | Purity ([2]; 60° C. (in dark place), Day 5): 96.96% | C ([2]; 60° C. (in dark place), Day 10): 9.68 µg/mL | Purity ([2]; 60° C. (in dark place), Day 10): 95.99% | C ([2]; Illumination, 8:00): 21.84 µg/mL | Purity ([2]; Illumination, 8:00): 97.62% | C ([2]; Illumination, Day 5): 14.70 µg/mL | Purity ([2]; Illumination, Day 5): 88.52% | C ([2]; Illumination, Day 10): 7.02 µg/mL | Purity ([2]; Illumination, Day 10): 74.89% | Concentration in solvent [3]: 24.45 µg/mL

CC(C)(O)c1ccccc1CC[C@@H](SCC1(CC(=O)[O-])CC1)c1cccc(/C=C/c2ccc3ccc(Cl)cc3n2)c1.COc1ccc2cc3[n+](cc2c1OC)CCc1cc2c(cc1-3)OCO2 [Montelukast berberine double salt, (R,E)-2-(1-(((1-(3-(2-(7-chloroquinoline-2-yl)vinyl)phenyl)-3-(2-(2-hydroxypropyl-2-yl)phenyl)propyl)thio)methyl)cyclopropyl)acetic acid and 9,10-dimethoxy-5,6-dihydro-[1,3]dioxocyclo [4,5-g]isoquino[3,2-a]isoquinolin-7-onium conjugate]
Weight gain percentage of Day 5 (%) [1]: 3.3% | Weight gain percentage of Day 10 (%) [1]: 4.9% | inflammation-related cytokines (mRNA expression) ([4]; 1 μmol/L): significantly reduce | inflammation-related cytokines (mRNA expression) ([4]; 10 μmol/L): significantly reduce | inflammation-related cytokines (mRNA expression) ([5]; 0.5 μmol/L, compared with single drug of berberine and montelukast of the same concentration): significantly reduce | inflammation-related cytokines (mRNA expression) ([5]; 1 μmol/L, hypertonic model 500 mOsm, four hours of administration, vs. HS group): significantly reduce | inflammation-related cytokines (mRNA expression) ([5]; 10 μmol/L, hypertonic model 500 mOsm, four hours of administration, vs. HS group): significantly reduce

CC(C)(O)c1ccccc1CC[C@@H](SCC1(CC(=O)O)CC1)c1cccc(/C=C/c2ccc3ccc(Cl)cc3n2)c1 [Montelukast]
Weight gain percentage of Day 5 (%) [1]: 4.5% | Weight gain percentage of Day 10 (%) [1]: 5.3%
